Results: ChEMBL document CHEMBL4334516, “Kinase Chemodiversity from the Arctic: The Breitfussins” (J Med Chem, 2019)
pIC50, pKd: −log10 of the molar value. Values belong to the molecule of their own block, whether it stands above or below them.

Columns and labels:
[1] = biological target: Testis-specific serine/threonine-protein kinase 1 (Homo sapiens) (UniProt Q9BXA7); assay: Inhibition of TSSK1 (unknown origin) assessed as residual enzyme activity at 50 uM by [33P]-ATP filter binding kinase assay relative to control
[2] = system: MDA-MB-436; assay: Cytotoxicity in human MDA-MB-436 cells assessed as reduction in cell viability incubated for 72 hrs by SRB assay; settings: MDA-MB-436, 72 h
[3] = Toxicity in zebrafish embryos assessed as survival at 14 uM after 72 hrs (reference value: 95%); parameters: species or system Danio rerio; settings: in vivo
[4] = biological target: 1-phosphatidylinositol 3-phosphate 5-kinase (Homo sapiens, UniProt Q9Y2I7); assay: Binding affinity to wild-type human partial length PIKFYVE (F1512 to C2098 residues) expressed in mammalian expression system by active-site directed competition binding assay based Kinomescan method
Sequence of 1-phosphatidylinositol 3-phosphate 5-kinase (Q9Y2I7 whole entry, the tested form may be a part): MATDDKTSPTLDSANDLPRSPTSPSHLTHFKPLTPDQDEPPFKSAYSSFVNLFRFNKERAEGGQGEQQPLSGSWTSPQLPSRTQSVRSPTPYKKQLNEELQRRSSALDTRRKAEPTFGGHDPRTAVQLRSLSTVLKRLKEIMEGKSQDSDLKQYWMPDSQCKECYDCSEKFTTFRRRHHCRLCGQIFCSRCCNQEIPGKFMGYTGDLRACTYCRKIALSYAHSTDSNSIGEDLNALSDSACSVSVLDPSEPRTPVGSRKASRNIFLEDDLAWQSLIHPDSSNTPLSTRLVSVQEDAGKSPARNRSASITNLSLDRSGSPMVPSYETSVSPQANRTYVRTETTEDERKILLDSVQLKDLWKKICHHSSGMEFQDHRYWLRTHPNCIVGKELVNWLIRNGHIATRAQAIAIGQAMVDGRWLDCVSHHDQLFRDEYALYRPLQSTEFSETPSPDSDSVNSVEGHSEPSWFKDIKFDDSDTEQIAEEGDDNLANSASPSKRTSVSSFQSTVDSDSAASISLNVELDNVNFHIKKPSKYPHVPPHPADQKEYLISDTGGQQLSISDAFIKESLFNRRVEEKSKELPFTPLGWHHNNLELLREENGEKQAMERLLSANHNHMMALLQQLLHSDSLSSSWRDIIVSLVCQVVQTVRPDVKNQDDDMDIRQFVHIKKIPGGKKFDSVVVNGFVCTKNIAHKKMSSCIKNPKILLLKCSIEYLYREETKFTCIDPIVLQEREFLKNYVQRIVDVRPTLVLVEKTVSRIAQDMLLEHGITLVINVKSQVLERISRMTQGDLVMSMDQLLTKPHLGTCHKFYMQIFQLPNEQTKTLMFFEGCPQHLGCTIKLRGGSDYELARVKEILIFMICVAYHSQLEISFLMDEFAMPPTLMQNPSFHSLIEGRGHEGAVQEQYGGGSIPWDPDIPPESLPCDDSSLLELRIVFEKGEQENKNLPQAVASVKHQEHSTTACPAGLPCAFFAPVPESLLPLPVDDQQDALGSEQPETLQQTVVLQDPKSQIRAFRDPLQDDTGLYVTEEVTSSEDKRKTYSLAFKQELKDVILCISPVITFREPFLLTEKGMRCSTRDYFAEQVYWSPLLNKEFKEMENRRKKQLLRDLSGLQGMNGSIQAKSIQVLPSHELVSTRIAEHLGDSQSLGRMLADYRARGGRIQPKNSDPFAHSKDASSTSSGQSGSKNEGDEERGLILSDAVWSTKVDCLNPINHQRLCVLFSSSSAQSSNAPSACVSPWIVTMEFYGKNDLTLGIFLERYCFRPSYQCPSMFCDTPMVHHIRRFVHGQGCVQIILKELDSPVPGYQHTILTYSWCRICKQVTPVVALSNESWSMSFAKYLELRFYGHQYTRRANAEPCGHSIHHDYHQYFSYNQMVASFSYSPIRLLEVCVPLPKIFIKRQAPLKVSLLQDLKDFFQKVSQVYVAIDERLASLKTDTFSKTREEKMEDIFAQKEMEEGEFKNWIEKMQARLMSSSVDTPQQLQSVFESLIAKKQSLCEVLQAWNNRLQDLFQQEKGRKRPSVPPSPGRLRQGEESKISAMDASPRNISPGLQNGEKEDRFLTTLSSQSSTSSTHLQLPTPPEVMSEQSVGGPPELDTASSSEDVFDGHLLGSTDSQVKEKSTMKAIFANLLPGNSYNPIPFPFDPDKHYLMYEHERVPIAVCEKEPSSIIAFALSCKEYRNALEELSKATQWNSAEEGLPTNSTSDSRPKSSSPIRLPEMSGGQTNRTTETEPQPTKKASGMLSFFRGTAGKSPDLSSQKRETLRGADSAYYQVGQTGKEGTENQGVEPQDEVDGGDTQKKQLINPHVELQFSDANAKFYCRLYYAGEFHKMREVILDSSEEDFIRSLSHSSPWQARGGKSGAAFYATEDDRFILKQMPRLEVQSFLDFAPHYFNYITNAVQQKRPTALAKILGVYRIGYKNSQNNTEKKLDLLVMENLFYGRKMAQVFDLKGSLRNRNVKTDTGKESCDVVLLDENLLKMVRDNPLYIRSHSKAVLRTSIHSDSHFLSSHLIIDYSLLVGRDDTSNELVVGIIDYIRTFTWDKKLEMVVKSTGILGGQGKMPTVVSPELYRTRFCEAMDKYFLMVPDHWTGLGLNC

[5] = biological target: T1, Mitogen-activated protein kinase kinase kinase 7 (Homo sapiens) (UniProt O43318); assay: Inhibition of TAK1 (unknown origin) assessed as residual enzyme activity at 1 uM by [33P]-ATP filter binding kinase assay relative to control
T1 sequence (whole entry): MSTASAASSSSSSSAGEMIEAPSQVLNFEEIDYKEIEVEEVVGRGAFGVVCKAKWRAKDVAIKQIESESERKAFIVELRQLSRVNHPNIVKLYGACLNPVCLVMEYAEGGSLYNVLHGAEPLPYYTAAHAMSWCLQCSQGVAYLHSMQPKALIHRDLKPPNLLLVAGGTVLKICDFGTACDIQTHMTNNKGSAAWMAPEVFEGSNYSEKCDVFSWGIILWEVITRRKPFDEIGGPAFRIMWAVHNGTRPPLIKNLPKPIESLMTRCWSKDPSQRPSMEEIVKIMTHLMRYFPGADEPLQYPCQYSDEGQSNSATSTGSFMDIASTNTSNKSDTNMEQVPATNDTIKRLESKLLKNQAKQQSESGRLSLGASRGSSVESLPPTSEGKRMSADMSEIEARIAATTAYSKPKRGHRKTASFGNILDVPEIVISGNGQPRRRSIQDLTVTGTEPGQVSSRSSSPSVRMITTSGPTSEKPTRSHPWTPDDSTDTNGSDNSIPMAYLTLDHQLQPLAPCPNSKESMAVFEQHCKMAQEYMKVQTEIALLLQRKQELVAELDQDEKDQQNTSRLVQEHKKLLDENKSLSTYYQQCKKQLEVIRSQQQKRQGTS

[6] = biological target: Serine/threonine-protein kinase 36 (Homo sapiens, UniProt Q9NRP7); assay: Binding affinity to wild-type human partial length STK36 (M1 to T271 residues) expressed in bacterial expression system by active-site directed competition binding assay based Kinomescan method
Sequence of Serine/threonine-protein kinase 36 (Q9NRP7 whole entry, the tested form may be a part): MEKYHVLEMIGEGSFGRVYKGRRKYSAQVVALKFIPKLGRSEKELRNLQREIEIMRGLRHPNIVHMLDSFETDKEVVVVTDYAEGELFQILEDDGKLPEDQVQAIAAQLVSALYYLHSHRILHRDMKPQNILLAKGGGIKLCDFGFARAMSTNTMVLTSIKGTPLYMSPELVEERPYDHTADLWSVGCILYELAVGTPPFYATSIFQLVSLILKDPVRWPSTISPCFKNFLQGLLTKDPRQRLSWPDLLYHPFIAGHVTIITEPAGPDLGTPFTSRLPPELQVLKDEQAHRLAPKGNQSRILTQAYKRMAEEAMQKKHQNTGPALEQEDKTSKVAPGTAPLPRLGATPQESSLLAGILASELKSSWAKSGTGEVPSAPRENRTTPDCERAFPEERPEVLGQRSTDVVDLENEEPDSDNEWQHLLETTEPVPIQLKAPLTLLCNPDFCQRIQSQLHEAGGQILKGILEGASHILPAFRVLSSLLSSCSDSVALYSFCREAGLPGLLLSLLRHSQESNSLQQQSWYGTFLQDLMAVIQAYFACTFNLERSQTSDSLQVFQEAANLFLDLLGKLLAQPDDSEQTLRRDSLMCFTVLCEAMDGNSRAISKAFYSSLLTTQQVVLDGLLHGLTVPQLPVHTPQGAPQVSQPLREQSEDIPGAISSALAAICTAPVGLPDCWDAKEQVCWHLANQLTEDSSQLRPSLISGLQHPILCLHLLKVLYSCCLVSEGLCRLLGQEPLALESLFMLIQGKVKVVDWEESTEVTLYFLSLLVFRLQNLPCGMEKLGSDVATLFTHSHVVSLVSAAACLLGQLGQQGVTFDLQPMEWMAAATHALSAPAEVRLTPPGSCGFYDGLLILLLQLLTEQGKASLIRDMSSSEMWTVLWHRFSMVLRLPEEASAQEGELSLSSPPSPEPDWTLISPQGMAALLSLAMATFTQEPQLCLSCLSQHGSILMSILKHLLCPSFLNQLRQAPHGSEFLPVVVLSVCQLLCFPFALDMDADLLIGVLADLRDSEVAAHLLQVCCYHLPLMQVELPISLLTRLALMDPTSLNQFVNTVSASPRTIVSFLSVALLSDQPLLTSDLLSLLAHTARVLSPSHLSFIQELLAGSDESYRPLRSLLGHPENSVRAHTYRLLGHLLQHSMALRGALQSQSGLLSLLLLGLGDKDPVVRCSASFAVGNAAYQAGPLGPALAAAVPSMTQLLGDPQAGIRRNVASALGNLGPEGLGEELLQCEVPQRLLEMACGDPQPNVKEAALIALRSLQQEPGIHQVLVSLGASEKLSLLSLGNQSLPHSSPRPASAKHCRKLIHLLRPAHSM

[7] = biological target: Mitogen-activated protein kinase kinase kinase 9 (Homo sapiens, UniProt P80192); assay: Binding affinity to wild-type human partial length MLK1 (V88 to W426 residues) expressed in bacterial expression system assessed as residual binding level at 10 uM by active-site directed competition binding assay based Kinomescan method relative to control
[8] = biological target: NUAK family SNF1-like kinase 1 (Homo sapiens) (UniProt O60285); assay: Inhibition of NUAK1 (unknown origin) by assessed as residual enzyme activity at 1 uM by [33P]-ATP filter binding kinase assay relative to control
Sequence of NUAK family SNF1-like kinase 1 (Homo sapiens) (O60285 whole entry): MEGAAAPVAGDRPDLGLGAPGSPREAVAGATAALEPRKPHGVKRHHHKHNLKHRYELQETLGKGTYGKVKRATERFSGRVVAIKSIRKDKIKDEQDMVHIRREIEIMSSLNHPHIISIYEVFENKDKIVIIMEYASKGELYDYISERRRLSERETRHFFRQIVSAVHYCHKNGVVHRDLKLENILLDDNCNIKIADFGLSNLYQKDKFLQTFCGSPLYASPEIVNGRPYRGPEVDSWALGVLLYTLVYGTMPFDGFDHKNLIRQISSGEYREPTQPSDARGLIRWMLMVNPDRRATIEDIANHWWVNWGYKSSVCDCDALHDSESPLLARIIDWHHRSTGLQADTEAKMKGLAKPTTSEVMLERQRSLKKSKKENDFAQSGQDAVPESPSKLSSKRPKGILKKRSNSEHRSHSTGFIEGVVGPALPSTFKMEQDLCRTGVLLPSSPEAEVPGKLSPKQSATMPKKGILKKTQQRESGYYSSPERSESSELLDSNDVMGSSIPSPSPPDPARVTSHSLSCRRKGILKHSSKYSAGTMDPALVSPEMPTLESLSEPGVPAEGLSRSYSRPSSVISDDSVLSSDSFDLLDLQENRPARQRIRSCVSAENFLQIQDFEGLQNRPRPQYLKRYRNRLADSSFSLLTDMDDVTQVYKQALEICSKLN

[9] = biological target: T2, Mitogen-activated protein kinase kinase kinase kinase 2 (Homo sapiens) (UniProt Q12851); assay: Inhibition of GCK (unknown origin) assessed as residual enzyme activity at 50 uM by [33P]-ATP filter binding kinase assay relative to control
T2 sequence (whole entry): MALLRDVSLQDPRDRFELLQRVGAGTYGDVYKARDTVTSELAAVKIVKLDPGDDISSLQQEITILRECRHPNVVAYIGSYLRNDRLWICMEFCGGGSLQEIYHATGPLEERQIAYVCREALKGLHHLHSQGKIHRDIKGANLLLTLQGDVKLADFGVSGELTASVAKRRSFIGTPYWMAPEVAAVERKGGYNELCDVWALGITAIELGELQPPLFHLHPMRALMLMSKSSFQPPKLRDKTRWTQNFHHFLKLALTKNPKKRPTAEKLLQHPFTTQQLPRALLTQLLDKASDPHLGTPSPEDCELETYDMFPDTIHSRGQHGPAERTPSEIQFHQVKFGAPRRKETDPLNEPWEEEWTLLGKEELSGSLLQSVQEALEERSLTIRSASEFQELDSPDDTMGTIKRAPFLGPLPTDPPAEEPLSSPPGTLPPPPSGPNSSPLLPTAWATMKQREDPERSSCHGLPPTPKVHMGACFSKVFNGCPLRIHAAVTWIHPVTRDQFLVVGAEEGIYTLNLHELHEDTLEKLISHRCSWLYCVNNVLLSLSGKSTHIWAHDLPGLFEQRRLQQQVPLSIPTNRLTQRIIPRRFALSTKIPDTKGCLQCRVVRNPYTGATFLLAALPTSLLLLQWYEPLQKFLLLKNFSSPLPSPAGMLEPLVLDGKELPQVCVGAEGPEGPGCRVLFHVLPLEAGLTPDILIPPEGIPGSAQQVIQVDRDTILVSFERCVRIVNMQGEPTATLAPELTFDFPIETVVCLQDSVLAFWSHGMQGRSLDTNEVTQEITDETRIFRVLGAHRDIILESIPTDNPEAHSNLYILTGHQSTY

[10] = system: NCI-H460; assay: Cytotoxicity in human NCI-H460 cells assessed as reduction in cell viability incubated for 72 hrs by SRB assay; settings: NCI-H460, 72 h
[11] = Intrinsic clearance in human liver microsomes at 3 uM measured up to 50 mins by LC-MS analysis; format: ADME, Microsome; settings: read-out: CLH
[12] = Toxicity in zebrafish embryos assessed as induction of heart edema by measuring unaffected embryos level at 0.1 uM after 72 hrs (reference value: 100%); format: tissue-based, Danio rerio; settings: in vivo
[13] = biological target: Serine/threonine-protein kinase pim-1 (Homo sapiens, UniProt P11309); assay: Inhibition of PIM1 (unknown origin) assessed as residual enzyme activity at 50 uM by [33P]-ATP filter binding kinase assay relative to control
Sequence of Serine/threonine-protein kinase pim-1 (P11309 whole entry, looked up): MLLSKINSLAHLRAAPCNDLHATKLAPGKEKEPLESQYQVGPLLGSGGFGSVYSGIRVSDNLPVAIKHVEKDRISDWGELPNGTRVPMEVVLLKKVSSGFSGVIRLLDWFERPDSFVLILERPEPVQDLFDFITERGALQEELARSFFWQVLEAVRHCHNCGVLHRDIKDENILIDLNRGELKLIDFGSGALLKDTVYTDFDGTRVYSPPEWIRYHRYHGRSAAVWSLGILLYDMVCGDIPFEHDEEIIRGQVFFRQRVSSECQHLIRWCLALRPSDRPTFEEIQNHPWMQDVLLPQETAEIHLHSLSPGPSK

[14] = biological target: T2, Mitogen-activated protein kinase kinase kinase kinase 2 (Homo sapiens); assay: Inhibition of GCK (unknown origin) assessed as residual enzyme activity at 1 uM by [33P]-ATP filter binding kinase assay relative to control
[15] = Toxicity in zebrafish embryos assessed as survival at 1.4 uM after 72 hrs (reference value: 95%); parameters: species or system Danio rerio; settings: in vivo
[16] = biological target: Serine/threonine-protein kinase 17B (Homo sapiens) (UniProt O94768); assay: Binding affinity to wild-type human full length DRAK2 (M1 to C372 residues) expressed in bacterial expression system assessed as residual binding level at 10 uM by active-site directed competition binding assay based Kinomescan method relative to control
Sequence of Serine/threonine-protein kinase 17B (Homo sapiens) (O94768 whole entry, the tested form may be a part): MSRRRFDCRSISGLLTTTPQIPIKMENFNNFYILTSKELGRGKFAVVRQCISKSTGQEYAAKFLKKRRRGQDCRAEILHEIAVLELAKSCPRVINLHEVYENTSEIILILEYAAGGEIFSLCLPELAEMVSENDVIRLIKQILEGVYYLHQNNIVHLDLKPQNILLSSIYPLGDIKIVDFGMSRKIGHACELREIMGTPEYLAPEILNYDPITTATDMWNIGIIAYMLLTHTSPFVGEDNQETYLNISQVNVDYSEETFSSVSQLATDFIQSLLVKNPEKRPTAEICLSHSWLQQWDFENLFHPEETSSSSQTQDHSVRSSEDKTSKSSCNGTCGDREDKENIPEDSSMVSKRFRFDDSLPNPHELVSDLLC

[17] = system: PLC-PRF-5; assay: Cytotoxicity in human PLC/PRF/5 cells assessed as reduction in cell viability incubated for 72 hrs by SRB assay; settings: PLC-PRF-5, 72 h
[18] = system: MCF7; assay: Cytotoxicity in human MCF7 cells assessed as reduction in cell viability by MTS assay; format: functional, cell-based; settings: TDE = time-dependent effect

Activity [1]: 21%
SMILES: COc1cc(Br)cc2[nH]cc(-c3oc(-c4ccc[nH]4)nc3I)c12

SMILES: COc1cc2c(-c3cnc(-c4ccc[nH]4)o3)c[nH]c2cc1Br
pIC50 [2]: < 4.52
survival at 72 h, 14 µM [3]: 5%
pKd [4]: 6.00
Activity [5]: 35%
pKd [6]: 5.57
Activity [7]: 59%
Activity [8]: 46%
Activity [9]: 7%
pIC50 [10]: 5.70
microsomal CLint at 3 µM [11]: 14 µL/min/mg
Activity [12]: 95%
Activity [13]: 2%
Activity [14]: 31%
survival at 72 h, 1.4 µM [15]: 45%
Activity [16]: 1.2%
pIC50 [17]: 5.82

SMILES: COc1cc(Br)cc2[nH]cc(-c3cnc(-c4ccc[nH]4)o3)c12
Activity [18]: Tde
